From paper PMC9220251, “Modulation of the 20S Proteasome Activity by Porphyrin Derivatives Is Steered through Their Charge Distribution” (Biomolecules, 2022)

How the values were obtained:
[1] = biological target: T1, human 20S proteasome (h20S); test: Suc-LLVY-AMC hydrolysis, global fit of kcat and Km against TMPC (two-state model, n = […], m = […]); type: biochemical; conditions: competitive inhibitory site, substrate-free enzyme in basal state A; model also has three cooperative allosteric sites and state B with separate constants (KAU, KAL, KBU, KBL, KBI); 50 mM Tris-HCl pH
T1 construct: gene PSMA6; purified 20S core particle, purchased from Boston Biochem; 28 subunits in four heptameric rings; no regulatory particle; with Proteasome subunit beta type-6; Proteasome subunit beta type-7; Proteasome subunit beta type-3; Proteasome subunit beta type-2; Proteasome subunit beta type-1; Proteasome subunit beta type-4

[2] = system: T1, human 20S proteasome (h20S); test: STD-NMR and WaterLOGSY; type: binding; conditions: 50 mM HEPES, 100 mM NaCl, 1 mM DTT, 298 K; TMPC 175 μM

Kd [1]: 1000 nM
SMILES: C[n+]1ccc(-c2c3nc(c(-c4cc[n+](C)cc4)c4ccc([nH]4)c4ccc([nH]4)c(-c4cc[n+](C)cc4)c4ccc2[nH]4)C=C3)cc1 [TMPC]
STD-NMR and WaterLOGSY [2]: clearly indicate that the ligand interacts with the h20S
